US20260077191A1, “COMBINATION THERAPY FOR THE TREATMENT OF DEPRESSION” (Flow Neuroscience, Inc., priority 2022, published 2026)

Columns and labels:
[1] = system: serotonin reuptake and norepinephrine reuptake; conditions: cited from earlier work; for selectivity for serotonin reuptake inhibition than norepinephrine reuptake inhibition: higher selectivity for serotonin reuptake
[2] = system: Major depressive disorder (MDD); assay: weekly MADRS-s self-assessment of MDD subjects on a pharmacologic antidepressant agent combined with tDCS sessions (Example 2); format: in vivo, human; conditions: each agent combined with tDCS; Week 6; change in MADRS-s, FIG. 7
Description: In this example, a subject completed a MADRS-s questionnaire at baseline (defined as a time preceding initiation of neurostimulation) to determine a starting measurement to be used in an assessment of treatment efficacy. Ideally, baseline measures were made close to the period of time in which the first neurostimulation session began. The subject completed the same MADRS-s questionnaire weekly during a period of ongoing treatment comprising administering of a prescribed pharmacologic antidepressant agent and delivery to the subject of plurality tDCS sessions. […]
Subjects were provided with a tDCS neurostimulation device, instructions of use, and an program capable of being run on a handheld electronic device which provided instructions, recorded responses to various questionnaires completed by the subject, and recorded information regarding the tDCS stimulation sessions completed by the user. Amongst the tDCS stimulation session information recorded was the date of each session completed, the time of day of each completed session, the duration of each completed session, the intensity of electrical stimulation in each session, the latency from the most recently completed session to the previous session.
Subjects completed a MADSR-s assessment at baseline prior to their first tDCS session. […] If the dosage had changed, the subject recorded the extent of the change. […]

Row | Structure (SMILES) | potency for norepinephrine reuptake inhibition than serotonin reuptake inhibition [1] [fold] | effectiveness in improving symptoms of depression compared to fluoxetine [2] | selectivity for serotonin reuptake inhibition than norepinephrine reuptake inhibition [1] [fold]
1 | CCN(CC)C(=O)[C@@]1(c2ccccc2)C[C@H]1CN [Levomilnacipran] | 2 | – | –
2 | CCN(CC)C(=O)C1(c2ccccc2)CC1CN (stereo not drawn) [Milnacipran] | 3 | – | –
3 | CN[C@H]1CC[C@@H](c2ccc(Cl)c(Cl)c2)c2ccccc21 [Sertraline] | – | significantly better | –
4 | COc1ccc(C(CN(C)C)C2(O)CCCCC2)cc1 (stereo not drawn) [Venlafaxine] | – | approaching significance | –
5 | CN(C)CC(c1ccc(O)cc1)C1(O)CCCCC1 (stereo not drawn) [desvenlafaxine] | – | – | 10
6 | CNCC[C@H](Oc1cccc2ccccc12)c1cccs1 [duloxetine] | – | – | 10
